Laboratory results reported in patent EP4810052A2, “HCRHR2 SELECTIVE POLYPEPTIDES” (Gubra A/S, priority 2023, dated 2026).
Where two headings read alike, the source gives them in different places. Marks after values point to notes of the source that are not given here. Starred links: 1 amine or outer side, 2 acyl side, 3 side chain; linkers in the order of their positions; H or OH if unused. Non-standard residues stand in square brackets, D forms with d. Residues, ends and D or L forms follow the SMILES beside them. Groups on a side chain read outwards from the residue. *: point of attachment. C20 diacid = O=C(O)CCCCCCCCCCCCCCCCCCC(=O)*; γGlu = O=C(O)[C@H](CCC(=O)[*:2])N[*:1]; NMeI = CC[C@H](C)[C@H](NC)C(=O)O; AEEA = NCCOCCOCC(=O)O; Aib = CC(C)(N)C(=O)O

What was measured:
[1] = Effect on acute food intake in mice; format: in vivo; conditions: single subcutaneous dose
Description: Male NMRI mice were obtained from JanVier (JanVier Labs, France) at 5 weeks of age. The animals were group-housed 4 mice pr. cage under a 12/12 h dark-light cycle, light off at 1 PM. Room temperature was controlled to 22°C ± 1°C, with 60 % ± 20% humidity. Animals had ad libitum access to regular rodent chow (Altromin 1324, Brogaarden, Denmark) and tap water.
Animals were transferred 5-7 days before the start of the study to a real-time food intake monitoring system, HM-2 system (MBRose, Denmark) to allow acclimatization to experimental conditions. As the animals were uniquely identified with microchips, each individual animal was identified by its microchip upon entry and exit from the food channel. Randomization of the mice for each study group (n=7-8) was based on body weight measured the day before the start of the study. A vehicle-treated group was included in each experiment. Six hours before the start of the dark phase, animals were fasted. One hour before the dark phase, animals were dosed once subcutaneously with test peptide. Food intake was reported hourly for a period of 72 hours. The percentage of food intake reduction was normalized to average food intake from the vehicle group. Statistical significance was evaluated using One-way analysis of variance with Dunnett's multiple comparison test. P < 0.05 was considered statistically significant.
Selected compounds were tested according to the general procedure on acute food intake in mice to determine the effect of a single subcutaneous dose on food intake in mice over 3 days.

hCRHR2 = target: T1, hCRHR2 (Homo sapiens, UniProt Q13324); test: HTRF cAMP assay, determination of hCRHR2 potency (peptide libraries 5 conc., purified peptides 11 conc.); format: cell-based; conditions: for Selectivity ratio (hCRHR1/ hCRHR2): hCRHR1-EC50/hCRHR2-EC50; for EC50: purified peptides, CHO-K1 cells stably expressing hCRHR2, cAMP HTRF, read-out: hCRHR2 EC50
T1 sequence (Q13324 1-411): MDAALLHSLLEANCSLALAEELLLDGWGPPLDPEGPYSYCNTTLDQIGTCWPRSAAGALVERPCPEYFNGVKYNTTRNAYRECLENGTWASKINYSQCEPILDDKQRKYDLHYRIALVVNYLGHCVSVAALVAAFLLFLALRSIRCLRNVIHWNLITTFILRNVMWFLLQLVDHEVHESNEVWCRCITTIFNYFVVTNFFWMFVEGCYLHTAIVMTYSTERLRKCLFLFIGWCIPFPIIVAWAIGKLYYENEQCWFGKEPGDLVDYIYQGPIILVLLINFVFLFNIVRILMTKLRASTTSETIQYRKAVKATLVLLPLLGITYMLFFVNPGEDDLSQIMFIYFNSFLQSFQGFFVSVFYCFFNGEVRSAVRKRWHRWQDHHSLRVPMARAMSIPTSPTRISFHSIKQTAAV
In short: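 EC50 derived by variable-slope sigmoid regression of FRET-based cAMP data; cellular cAMP displaced d2-labelled tracer from cryptate anti-cAMP antibody. Stable human CRHR2 CHO-K1 suspension cells, revived from frozen stocks just before the run.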

hCRHR1 = target: T2, hCRHR1 (Homo sapiens, UniProt P34998); test: HTRF cAMP assay, determination of hCRHR1 potency (peptide libraries 5 conc., purified peptides 11 conc.); format: cell-based
T2 sequence (P34998 24-415): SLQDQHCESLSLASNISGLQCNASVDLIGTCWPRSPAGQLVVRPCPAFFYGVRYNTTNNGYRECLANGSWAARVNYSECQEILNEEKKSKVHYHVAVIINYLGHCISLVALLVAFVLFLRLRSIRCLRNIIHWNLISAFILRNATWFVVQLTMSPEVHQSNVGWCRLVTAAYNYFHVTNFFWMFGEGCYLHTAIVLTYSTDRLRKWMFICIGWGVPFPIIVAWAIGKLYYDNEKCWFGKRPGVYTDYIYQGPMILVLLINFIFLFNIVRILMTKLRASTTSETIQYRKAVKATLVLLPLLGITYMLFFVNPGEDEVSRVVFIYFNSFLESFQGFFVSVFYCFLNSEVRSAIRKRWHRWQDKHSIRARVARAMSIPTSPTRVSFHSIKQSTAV
In short: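 Cellular cAMP was read by time-resolved FRET between d2-labelled cAMP and cryptate anti-cAMP antibody. The cells were freshly thawed suspension CHO-K1 cells stably expressing human CRHR1.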

PK in rats = format: in vivo; design: T½ / MRT: unit not given here; conditions: for half-life: read-out: T½ (converted)
Description: Lean male Sprague Dawley rats (RJHan:SD) were obtained from JanVier (JanVier Labs, France) at 7 weeks of age. The animals were pair housed until randomization under a 12/12 h dark-light cycle, light off at 3 PM. Room temperature was controlled to 22°C ± 1°C, with 60 % ± 20% humidity.
Animals had ad libitum access to regular rodent chow (Altromin 1324, Brogaarden, Denmark) and tap water.
After 2 weeks of acclimatization, the animals were single housed and randomized into treatment groups (n = 3 per group) based on body weight on study day -3. On study day 1, animals were dosed 50 nmol/kg IV and SC in combination of two peptides. Plasma samples were collected for PK analysis at times 0.17, 1, 3, 6, 24, 30, 48, 72 and 96 hours post dosing. Plasma samples were analyzed using LC-MSMS and PK parameters were estimated by Non-Compartmental Analysis (NCA).

[2] = purified peptides, CHO-K1 cells stably expressing hCRHR1, cAMP HTRF, read-out: hCRHR1 EC50
[3] = male, Sprague Dawley (RJHan:SD), in vivo, iv, Rat, 50 nmol/kg i.v.
[4] = male, Sprague Dawley (RJHan:SD), in vivo, sc, Rat, 50 nmol/kg s.c.

## CC[C@H](C)[C@H](NC)C(=O)N[C@H](C(=O)N[C@@H](CC(C)C)C(=O)N[C@@H](CO)C(=O)N[C@@H](CC(C)C)C(=O)N[C@@H](CC(=O)O)C(=O)N[C@H](C(=O)N1CCC[C@H]1C(=O)N[C@H](C(=O)NCC(=O)N[C@@H](CC(C)C)C(=O)N[C@@H](CC(C)C)C(=O)N[C@@H](CCC(N)=O)C(=O)N[C@H](C(=O)N[C@@H](CC(C)C)C(=O)N[C@@H](CC(C)C)C(=O)N[C@@H](CCC(=O)O)C(=O)N[C@@H](CCC(N)=O)C(=O)N[C@@H](C)C(=O)N[C@@H](CCCNC(=N)N)C(=O)N[C@@H](C)C(=O)N[C@@H](CCCNC(=N)N)C(=O)N[C@@H](C)C(=O)N[C@@H](C)C(=O)N[C@@H](CCCNC(=N)N)C(=O)N[C@@H](CCC(=O)O)C(=O)N[C@@H](CCC(N)=O)C(=O)N[C@@H](C)C(=O)N[C@@H](CCCCNC(=O)COCCOCCNC(=O)COCCOCCNC(=O)CC[C@H](NC(=O)CC[C@H](NC(=O)CCCCCCCCCCCCCCCCCCC(=O)O)C(=O)O)C(=O)O)C(=O)N[C@H](C(=O)N[C@@H](CC(N)=O)C(=O)NC(C)(C)C(=O)N[C@@H](CCC(=O)O)C(=O)N[C@H](C(=O)N[C@@H](CC(C)C)C(=O)N[C@@H](C)C(=O)N[C@@H](CCC(=O)O)C(=O)N[C@H](C(N)=O)C(C)C)[C@@H](C)CC)[C@@H](C)O)[C@@H](C)CC)[C@@H](C)CC)C(C)C)C(C)C [SEQ ID NO: 16] (H-[NMeI]VLSLDVPIGLLQILLEQARARAAREQAK([AEEA-AEEA-γGlu-γGlu-C20 diacid])TN[Aib]EILAEV-NH2)
[1]; 30 nmol/kg
  % FI compared to vehicle, 24 h post-dosing: 44.62*** %
[1]; 100 nmol/kg
  % FI compared to vehicle, 24 h post-dosing: 18.21*** %
[1]; 300 nmol/kg
  % FI compared to vehicle, 24 h post-dosing: 12.36*** %
hCRHR2
  Selectivity ratio (hCRHR1/ hCRHR2): >1852
  EC50: 2.7 nM
pH 6.5
  Solubility pH 6.5 (mg/ml): 20.6 mg/ml
pH 7
  Solubility pH 7.0 (mg/mL): 19.8 mg/mL
pH 7.5
  Solubility pH 7.5 (mg/mL): 17.9 mg/mL
  Solubility pH 7.5 + phenol (mg/mL): 18.0 mg/mL
  Solubility pH 7.5, target conc. =10 mg/mL (measured mg/mL): 10 mg/mL
hCRHR1; [2]
  EC50: > 5000 nM
hCRHR1; stable cell system, Table 10, read-out: Stable EC50 (nM) hCRHR 1
  EC50: > 5000 nM
PK in rats; Rat
  MRT: 9.4
  T½: 7.8
PK in rats; [3]
  clearance: 0.117 mL/min/kg
  half-life: 7.8 h
PK in rats; [4]
  Cmax: 87 nM
  Tmax: 24 h
  half-life: 9.8 h
PK in rats; male, Sprague Dawley, rat, in vivo, sc
  bioavailability: 31%

## CC[C@H](C)[C@H](N)C(=O)N[C@H](C(=O)N[C@@H](CC(C)C)C(=O)N[C@@H](CO)C(=O)N[C@@H](CC(C)C)C(=O)N[C@@H](CC(=O)O)C(=O)N[C@H](C(=O)N1CCC[C@H]1C(=O)N[C@H](C(=O)NCC(=O)N[C@@H](CC(C)C)C(=O)N[C@@H](CC(C)C)C(=O)N[C@@H](CCC(N)=O)C(=O)N[C@H](C(=O)N[C@@H](CC(C)C)C(=O)N[C@@H](CC(C)C)C(=O)N[C@@H](CCC(=O)O)C(=O)N[C@@H](CCC(N)=O)C(=O)N[C@@H](C)C(=O)N[C@@H](CCCNC(=N)N)C(=O)N[C@@H](C)C(=O)N[C@@H](CCCNC(=N)N)C(=O)N[C@@H](C)C(=O)N[C@@H](C)C(=O)N[C@@H](CCCNC(=N)N)C(=O)N[C@@H](CCC(=O)O)C(=O)N[C@@H](CCC(N)=O)C(=O)N[C@@H](C)C(=O)N[C@H](C(=O)N[C@@H](CCCCNC(=O)COCCOCCNC(=O)COCCOCCNC(=O)CC[C@H](NC(=O)CC[C@H](NC(=O)CCCCCCCCCCCCCCCCCCC(=O)O)C(=O)O)C(=O)O)C(=O)N[C@@H](CC(N)=O)C(=O)N[C@@H](C)C(=O)N[C@@H](CCC(=O)O)C(=O)N[C@H](C(=O)N[C@@H](CC(C)C)C(=O)N[C@@H](C)C(=O)N[C@@H](CCC(=O)O)C(=O)N[C@H](C(N)=O)C(C)C)[C@@H](C)CC)[C@@H](C)O)[C@@H](C)CC)[C@@H](C)CC)C(C)C)C(C)C [SEQ ID NO: 4] (H-IVLSLDVPIGLLQILLEQARARAAREQATK([AEEA-AEEA-γGlu-γGlu-C20 diacid])NAEILAEV-NH2)
[1]; 30 nmol/kg
  % FI compared to vehicle, 24 h post-dosing: 63.41*** %
[1]; 100 nmol/kg
  % FI compared to vehicle, 24 h post-dosing: 19.33*** %
[1]; 300 nmol/kg
  % FI compared to vehicle, 24 h post-dosing: 18.14*** %
hCRHR2
  Selectivity ratio (hCRHR1/ hCRHR2): >3846
  EC50: 1.3 nM
pH 7.5
  Solubility pH 7.5, target conc. =10 mg/mL (measured mg/mL): 9.1 mg/mL
hCRHR1; [2]
  EC50: > 5000 nM
PK in rats; Rat
  MRT: 6.4
  T½: 5.3

## CC[C@H](C)[C@H](N)C(=O)N[C@H](C(=O)N[C@@H](CC(C)C)C(=O)N[C@@H](CO)C(=O)N[C@@H](CC(C)C)C(=O)N[C@@H](CC(=O)O)C(=O)N[C@H](C(=O)N1CCC[C@H]1C(=O)N[C@H](C(=O)NCC(=O)N[C@@H](CC(C)C)C(=O)N[C@@H](CC(C)C)C(=O)N[C@@H](CCC(N)=O)C(=O)N[C@H](C(=O)N[C@@H](CC(C)C)C(=O)N[C@@H](CC(C)C)C(=O)N[C@@H](CCC(=O)O)C(=O)N[C@@H](CCC(N)=O)C(=O)N[C@@H](C)C(=O)N[C@@H](CCCNC(=N)N)C(=O)N[C@@H](C)C(=O)N[C@@H](CCCNC(=N)N)C(=O)N[C@@H](C)C(=O)N[C@@H](C)C(=O)N[C@@H](CCCNC(=N)N)C(=O)N[C@@H](CCC(=O)O)C(=O)N[C@@H](CCC(N)=O)C(=O)N[C@@H](C)C(=O)N[C@@H](CCCCNC(=O)COCCOCCNC(=O)COCCOCCNC(=O)CC[C@H](NC(=O)CC[C@H](NC(=O)CCCCCCCCCCCCCCCCCCC(=O)O)C(=O)O)C(=O)O)C(=O)NC(C)(C)C(=O)N[C@@H](CC(N)=O)C(=O)N[C@@H](C)C(=O)N[C@@H](CCC(=O)O)C(=O)N[C@H](C(=O)N[C@@H](CC(C)C)C(=O)N[C@@H](C)C(=O)N[C@@H](CCC(=O)O)C(=O)N[C@H](C(N)=O)C(C)C)[C@@H](C)CC)[C@@H](C)CC)[C@@H](C)CC)C(C)C)C(C)C [SEQ ID NO: 19] (H-IVLSLDVPIGLLQILLEQARARAAREQAK([AEEA-AEEA-γGlu-γGlu-C20 diacid])[Aib]NAEILAEV-NH2)
[1]; 30 nmol/kg
  % FI compared to vehicle, 24 h post-dosing: 56.47*** %
[1]; 100 nmol/kg
  % FI compared to vehicle, 24 h post-dosing: 29.68*** %
[1]; 300 nmol/kg
  % FI compared to vehicle, 24 h post-dosing: 21.66*** %
hCRHR2
  Selectivity ratio (hCRHR1/ hCRHR2): >3125
  EC50: 1.6 nM
pH 7.5
  Solubility pH 7.5, target conc. =10 mg/mL (measured mg/mL): 9.6 mg/mL
hCRHR1; [2]
  EC50: > 5000 nM
PK in rats; Rat
  MRT: 7.4
  T½: 5.9
